# Experimental data as given in ChEMBL document CHEMBL4052760, “Synthesis, antioxidant and antiproliferative activities of 1,3,4-thiadiazoles derived from phenolic acids” (Bioorg Med Chem Lett, 2017).
# The source made the active and inactive calls. The rule behind the calls is not given here.
# How the values were obtained:
# [1] = Antioxidant activity assessed as DPPH radical scavenging activity after 30 mins in absence of light; type: functional
# HeLa = assay: Cytotoxicity against human HeLa cells after 72 hrs by MTT assay; type: functional, cell-based
# HL-60 [2] = assay: Cytotoxicity against human HL60 cells after 72 hrs by MTT assay; type: functional, cell-based; settings: HL-60, 72 h
# A549 = assay: Cytotoxicity against human A549 cells after 72 hrs by MTT assay; type: functional, cell-based; settings: A549, 72 h
# MRC5 = assay: Cytotoxicity against human MRC5 cells after 72 hrs by MTT assay; type: cell-based; settings: MRC5, 72 h
# HL-60 [3] = assay: Downregulation of MMP9 in human HL60 cells assessed as decrease in mRNA expression levels at 6.5 uM after 24 hrs by RT-PCR analysis; type: functional, cell-based
# HL-60 [4] = assay: Induction of apoptosis in human HL60 cells assessed as chromatin condensation at 2 times IC50 measured after 24 hrs by acridine orange/ethidium bromide staining-based fluorescence microscopic method; type: functional, cell-based
# HL-60 [5] = assay: Induction of apoptosis in human HL60 cells assessed as secondary necrosis at 2 times IC50 measured after 24 hrs by acridine orange/ethidium bromide staining-based fluorescence microscopic method; type: functional, cell-based
# HL-60 [6] = assay: Induction of apoptosis in human HL60 cells assessed as nuclear fragmentation at 2 times IC50 measured after 24 hrs by acridine orange/ethidium bromide staining-based fluorescence microscopic method; type: functional, cell-based
# HL-60 [7] = assay: Induction of cell death in human HL60 cells assessed as decrease in percentage of cells in subG1 phase at 2 times IC50 pretreated for 72 hrs followed by caspase-3 inhibitor Z-DEVD-FMK addition measured after 24 hrs by propidium iodide-staining based FACS analysis; type: functional
# HL-60 [8] = assay: Induction of cell death in human HL60 cells assessed as decrease in percentage of cells in subG1 phase at 2 times IC50 pretreated for 72 hrs followed by caspase-8 inhibitor Z-IETD-FMK addition measured after 24 hrs by propidium iodide-staining based FACS analysis; type: functional
# HL-60 [9] = assay: Induction of cell death in human HL60 cells assessed as decrease in percentage of cells in subG1 phase at 2 times IC50 pretreated for 72 hrs followed by caspase-9 inhibitor Z-LEHD-FMK addition measured after 24 hrs by propidium iodide-staining based FACS analysis; type: functional
# EA.hy 926 [10] = assay: Antiangiogenic activity against human EAhy926 cells assessed as inhibition of capillary-like tube formation at 50 uM measured after 20 hrs by inverted phase contrast microscopic analysis; type: functional, cell-based
# HL-60 [11] = assay: Downregulation of MMP2 in human HL60 cells assessed as decrease in mRNA expression levels at 6.5 uM after 24 hrs by RT-PCR analysis; type: functional, cell-based
# HL-60 [12] = assay: Downregulation of MMP2 in human HL60 cells assessed as decrease in mRNA expression levels at 6 uM after 24 hrs by RT-PCR analysis; type: functional, cell-based
# HL-60 [13] = assay: Downregulation of MMP9 in human HL60 cells assessed as decrease in mRNA expression levels at 6 uM after 24 hrs by RT-PCR analysis; type: functional, cell-based
# HL-60 [14] = assay: Downregulation of VEGFA in human HL60 cells assessed as decrease in mRNA expression levels at 6.5 uM after 24 hrs by RT-PCR analysis; type: functional, cell-based
# HL-60 [15] = assay: Downregulation of VEGFA in human HL60 cells assessed as decrease in mRNA expression levels at 6 uM after 24 hrs by RT-PCR analysis; type: functional, cell-based
# HL-60 [16] = assay: Cytoprotective activity against H2O2-induced oxidative stress in human HL60 cells assessed as decrease in level of reactive oxygen species pretreated for 24 hrs at 6.25 uM followed by H2O2-stimulation for 30 mins by DCFH-DA staining-based FACS analysis; type: functional, cell-based
# HL-60 [17] = assay: Cytoprotective activity against H2O2-induced oxidative stress in human HL60 cells assessed as decrease in level of reactive oxygen species pretreated for 24 hrs at 6.5 uM followed by H2O2-stimulation for 30 mins by DCFH-DA staining-based FACS analysis; type: functional, cell-based
# EA.hy 926 [18] = assay: Antiangiogenic activity against human EAhy926 cells assessed as inhibition of capillary-like tube formation at 30 uM measured after 20 hrs by inverted phase contrast microscopic analysis; type: functional, cell-based
# HL-60 [19] = assay: Cell cycle arrest in human HL60 cells assessed as accumulation at subG1 phase at IC50 after 24 hrs by FACS analysis; type: functional, cell-based
# HL-60 [20] = assay: Cytoprotective activity against H2O2-induced oxidative stress in human HL60 cells assessed as decrease in level of reactive oxygen species pretreated for 24 hrs at 6 uM followed by H2O2-stimulation for 30 mins by DCFH-DA staining-based FACS analysis; type: functional, cell-based
# HL-60 [21] = assay: Cell cycle arrest in human HL60 cells assessed as accumulation at subG1 phase at 2 times IC50 after 24 hrs by FACS analysis; type: functional, cell-based
Compound,IC50 [1],IC50 (HeLa),IC50 (HL-60 [2]),IC50 (A549),IC50 (MRC5),other results
O=C(Nc1nnc(-c2ccc(O)c(O)c2)s1)c1ccccc1,23.4 µM,23.3 µM,17.6 µM,13 µM,27.4 µM,
O=C(Nc1nnc(-c2cccc(O)c2O)s1)c1ccc(Cl)cc1,30.2 µM,13 µM,9.6 µM,9.5 µM,18.7 µM,Activity (HL-60 [3]): inactive; Activity (HL-60 [4]): Active; Activity (HL-60 [5]): Active; Activity (HL-60 [6]): Active; Activity (HL-60 [7]): Active; Activity (HL-60 [8]): Active; Activity (HL-60 [9]): inactive; Activity (EA.hy 926 [10]): Active; Activity (HL-60 [11]): Active; Activity (HL-60 [12]): Active; Activity (HL-60 [13]): inactive; Activity (HL-60 [14]): Active; Activity (HL-60 [15]): Active
CC(=O)Nc1nnc(-c2ccc(O)c(O)c2)s1,23.4 µM,125 µM,42.5 µM,133 µM,58.6 µM,
O=C(Cc1ccccc1)Nc1nnc(-c2cccc(O)c2O)s1,20.9 µM,120 µM,13.9 µM,11.8 µM,45.3 µM,
O=C(COc1ccccc1)Nc1nnc(-c2cccc(O)c2O)s1,16.6 µM,117 µM,11.2 µM,10.5 µM,33.9 µM,Activity (HL-60 [16]): Active
O=C1O[C@H]([C@@H](O)CO)C(O)=C1O [ASCORBIC ACID],38 µM,,,,,
O=C(Nc1nnc(-c2ccc(O)c(O)c2)s1)C12CC3CC(CC(C3)C1)C2,17.9 µM,16.1 µM,7.4 µM,13 µM,20.1 µM,Activity (HL-60 [3]): inactive; Activity (HL-60 [17]): Active; Activity (HL-60 [4]): Active; Activity (HL-60 [5]): Active; Activity (HL-60 [6]): Active; Activity (HL-60 [7]): Active; Activity (HL-60 [8]): Active; Activity (HL-60 [9]): inactive; Activity (EA.hy 926 [18]): Active; Activity (HL-60 [11]): Active; Activity (HL-60 [12]): Active; Activity (HL-60 [13]): inactive; Activity (HL-60 [14]): Active; Activity (HL-60 [15]): Active
CC(=O)Nc1nnc(-c2cccc(O)c2O)s1,111 µM,177 µM,49 µM,200 µM,156 µM,
O=C(Nc1nnc(-c2ccc(O)c(O)c2)s1)C1CCCCC1,37.3 µM,34.5 µM,8.8 µM,16.3 µM,24 µM,
CC(Cc1ccc(O)c(O)c1)C(C)Cc1ccc(O)c(O)c1 (stereo not given) [NORDIHYDROGUAIARETIC ACID],20.8 µM,,,,,
O=C(Nc1nnc(-c2ccc(O)c(O)c2)s1)c1ccc(Cl)cc1,53 µM,47.3 µM,14.7 µM,14.6 µM,30.6 µM,
O=C(Nc1nnc(-c2cccc(O)c2O)s1)C12CC3CC(CC(C3)C1)C2,14.2 µM,21.4 µM,7.3 µM,12.8 µM,27.7 µM,Activity (HL-60 [3]): inactive; Activity (HL-60 [19]): Active; Activity (HL-60 [20]): Active; Activity (HL-60 [21]): Active; Activity (HL-60 [4]): Active; Activity (HL-60 [5]): Active; Activity (HL-60 [6]): Active; Activity (HL-60 [7]): Active; Activity (HL-60 [8]): Active; Activity (HL-60 [9]): inactive; Activity (EA.hy 926 [18]): Active; Activity (HL-60 [11]): Active; Activity (HL-60 [12]): Active; Activity (HL-60 [13]): inactive; Activity (HL-60 [14]): Active; Activity (HL-60 [15]): Active
Cc1ccc(C(=O)Nc2nnc(-c3ccc(O)c(O)c3)s2)cc1,34 µM,67.1 µM,10.5 µM,11.8 µM,27.1 µM,
O=C(Cc1ccccc1)Nc1nnc(-c2ccc(O)c(O)c2)s1,21.3 µM,88.6 µM,12 µM,15.4 µM,30.7 µM,
Cc1ccc(C(=O)Nc2nnc(-c3cccc(O)c3O)s2)cc1,27.1 µM,13.4 µM,10.6 µM,11.3 µM,33.2 µM,Activity (HL-60 [3]): inactive; Activity (HL-60 [4]): Active; Activity (HL-60 [5]): Active; Activity (HL-60 [6]): Active; Activity (HL-60 [7]): Active; Activity (HL-60 [8]): Active; Activity (HL-60 [9]): inactive; Activity (EA.hy 926 [10]): Active; Activity (HL-60 [11]): Active; Activity (HL-60 [12]): Active; Activity (HL-60 [13]): inactive; Activity (HL-60 [14]): Active; Activity (HL-60 [15]): Active
O=C(COc1ccccc1)Nc1nnc(-c2ccc(O)c(O)c2)s1,36.1 µM,51.3 µM,17.4 µM,21.2 µM,30.9 µM,
O=C(Nc1nnc(-c2cccc(O)c2O)s1)C1CCCCC1,19.9 µM,91.6 µM,7.9 µM,11 µM,70.3 µM,Activity (HL-60 [16]): Active
O=C(Nc1nnc(-c2cccc(O)c2O)s1)c1ccccc1,22.3 µM,21.8 µM,20.7 µM,12.3 µM,23.2 µM,
